# Like-named read-outs stand apart in the source and are kept apart here.
# Tests used:
# Assay type in all cases: cell-based
# [1] = tested on: Septoria tritici; test: Activity against leaf blotch on wheat caused by Septoria tritici in the microtiter test (Septtr); conditions: single active compound, 405 nm, day 7 after inoculation
# [2] = tested on: Phytophthora infestans; test: microbe, parasite or virus in culture; conditions: 168 h, read-out: Observed efficacy
# [3] = tested on: Pyricularia oryzae; conditions: single active compound, 405 nm, 7 days after inoculation
compound,measurement,setting,value
"CC(Cc1ccc(C(C)(C)C)cc1)CN1C[C@@H](C)O[C@@H](C)C1 (mixture of isomers) [Fenpropimorph, (RS)-cis-4-[3-(4-tert-butylphenyl)-2-methylpropyl]-2,6-dimethylmorpholine]",Observed efficacy,[1]; 1 ppm,9%
"CCCCCCCCc1c(CC)nc2ncnn2c1N [5-ethyl-6-octyl-[1,2,4]triazolo[1,5-a]pyrimidine-7-ylamine]",inhibition of growth at 0.25 ppm,[2],29%
"O=C1C2CC=CCC2C(=O)N1SC(Cl)(Cl)Cl (stereo not drawn) [Captan, 2-trichloromethylsulfanyl-3a,4,7,7a-tetrahydroisoindole-1,3-dione]",inhibition of growth at 1 ppm,[2],26%
"COC(=O)Nc1nc2ccccc2[nH]1 [Carbendazim, methyl (1H-benzoimidazol-2-yl)-carbamate]",Observed efficacy,[3]; 0.25 ppm,24%
"N#Cc1c(Cl)c(Cl)c(Cl)c(C#N)c1Cl [Chlorothalonil, 2,4,5,6-tetrachloroisophthalonitrile]",inhibition of growth at 0.25 ppm,[2],10%
"CNC(=O)/C(=N/OC)c1ccccc1COc1cc(C)ccc1C [Dimoxystrobin, (E)-2-(methoxyimino)-N-methyl-2-[α-(2,5-xylyloxy)-o-tolyl]acetamide]",inhibition of growth at 0.25 ppm,[2],42%
"OC(c1cccnc1)c1c(-c2ccc(Cl)cc2)csc1-c1ccc(Cl)cc1 (stereo not drawn) [I.8, 2,4-Bis-(4-chlorophenyl)-3-[(3-pyridyl)hydroxymethyl]thiophene]",Observed efficacy,[1]; 0.063 ppm,4%
same,Observed efficacy,[1]; 0.25 ppm,10%
same,inhibition of growth at 0.063 ppm,[2],2%
same,inhibition of growth at 0.25 ppm,[2],1%
same,inhibition of growth at 1 ppm,[2],4%
same,inhibition of growth at 4 ppm,[2],19%
same,Observed efficacy,[3]; 0.25 ppm,2%
same,Observed efficacy,[3]; 1 ppm,0%
"OC(c1cccnc1)c1c(-c2ccc(F)cc2F)csc1-c1ccc(F)cc1F (stereo not drawn) [I.16, 2,4-Bis-(2,4-Difluorophenyl)-3-[(3-pyridyl)hydroxymethyl]thiophene]",inhibition of growth at 1 ppm,[2],0%
same,Observed efficacy,[3]; 1 ppm,0%
"Cc1ccc(C(C)NC(=O)[C@@H](NC(=O)OC(C)C)C(C)C)cc1 (stereo partly drawn) [Iprovalicarb, isopropyl [(1S)-2-methyl-1-(1-p-tolylethylcarbamoyl)propyl]carbamate]",inhibition of growth at 1 ppm,[2],66%
"OC(Cc1ccccc1Cl)(Cn1nc[nH]c1=S)C1(Cl)CC1 (stereo not drawn) [Prothioconazole, 2-[2-(1-chlorocyclopropyl)-3-(2-chlorophenyl)-2-hydroxypropyl]-2,4-dihydro-[1,2,4]triazole-3-thione]",inhibition of growth at 16 ppm,[2],22%
"CC(C)(C)C(O)(CCc1ccc(Cl)cc1)Cn1cncn1 (stereo not drawn) [Tebuconazol, 1-(4-chlorophenyl)-4,4-dimethyl-3-[1,2,4]triazol-1-ylmethylpentan-3-ol]",Observed efficacy,[1]; 0.25 ppm,63%
"CCCCCCCCCCCCCN1CC(C)OC(C)C1 (stereo not drawn) [Tridemorph, 2,6-dimethyl-4-tridecylmorpholine]",Observed efficacy,[1]; 1 ppm,3%
zinc propylenebis(dithiocarbamate) polymer [Propineb],Observed efficacy,[3]; 1 ppm,23%

# From patent US20100273650A1, “Fungicidal Mixtures Comprising a Substituted 3-Hydroxymethylpyridine and a Further Fungicidal Compound” (BASF SE, priority 2007, published 2010)
